# Measurements published in patent publication US20010012846A1, “Quinoline-4-carboxamide derivatives as NK-2 and NK-3 receptor antagonists” (priority 1997, published 2001).
# Key:
# [1] = biological target: T1, human neurokinin-3 receptor (Homo sapiens, UniProt P29371); test: Binding affinity to human NK-3 receptor expressed in CHO cells (inhibition of [125I]-[Me-Phe7]-NKB or [3H]-Senktide binding); conditions: human neurokinin-3 receptor expressed in CHO cell lines; read-out: Binding affinity, Ki (nM) hNK-3-CHO
# T1 construct: expressed in transfected cells; host or cells: CHO
# T1 sequence (P29371 1-465): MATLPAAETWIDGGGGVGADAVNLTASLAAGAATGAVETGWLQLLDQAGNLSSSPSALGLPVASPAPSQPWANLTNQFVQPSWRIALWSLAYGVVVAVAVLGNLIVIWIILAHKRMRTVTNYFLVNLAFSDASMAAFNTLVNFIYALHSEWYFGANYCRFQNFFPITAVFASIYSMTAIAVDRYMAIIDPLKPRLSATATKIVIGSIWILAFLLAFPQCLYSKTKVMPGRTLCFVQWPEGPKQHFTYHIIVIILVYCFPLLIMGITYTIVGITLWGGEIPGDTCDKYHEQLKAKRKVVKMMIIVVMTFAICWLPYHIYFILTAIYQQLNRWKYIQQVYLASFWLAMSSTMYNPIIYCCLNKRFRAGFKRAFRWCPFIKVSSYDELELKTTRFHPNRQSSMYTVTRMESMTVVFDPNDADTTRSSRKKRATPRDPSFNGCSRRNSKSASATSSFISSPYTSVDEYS
# Experimental: The activity of the compounds of the present invention, as NK3 ligands, is determined by their ability to inhibit the binding of the radiolabelled NK3 ligands, [^125I]-[Me-Phe^7]-NKB or [^3H]-Senktide, to guinea-pig and human NK3 receptors (Renzetti et al, 1991, Neuropeptide, 18, 104-114; Buell et al, 1992, FEBS, 299(1), 90-95; Chung et al, 1994, Biochem. Biophys. Res. Commun., 198(3), 967-972).
# The binding assays utilized allow the determination of the concentration of the individual compound required to reduce by 50% the [^125I]-[Me-Phe^7]-NKB and [^3H]-Senktide specific binding to NK3 receptor in equilibrium conditions (IC50).
# Binding assays provide for each compound tested a mean IC50 value of 2-5 separate experiments performed in duplicate or triplicate. […] The NK3-antagonist activity of the compounds of the present invention is determined by their ability to inhibit senktide-induced contraction of the guinea-pig ileum (Maggi et al, 1990, Br. J. Pharmacol., 101, 996-1000) and rabbit isolated iris sphincter muscle (Hall et al., 1991, Eur. J. Pharmacol., 199, 9-14) and human NK3 receptors-mediated Ca^++ mobilization (Mochizuki et al, 1994, J. Biol. Chem., 269, 9651-9658). Guinea-pig and rabbit in-vitro functional assays provide for each compound tested a mean KB value of 3-8 separate experiments, where KB is the concentration of the individual compound required to produce a 2-fold rightward shift in the concentration-response curve of senktide. Human receptor functional assay allows the determination of the concentration of the individual compound required to reduce by 50% (IC50 values) the Ca^++ mobilization induced by the agonist NKB. In this assay, the compounds of the present invention behave as antagonists.
# [2] = biological target: T2, human neurokinin-2 receptor (Homo sapiens, UniProt P21452); test: Binding affinity to human NK-2 receptor expressed in CHO cells (inhibition of [125I]-NKA or [3H]-NKA binding); conditions: human neurokinin-2 receptor expressed in CHO cell lines; read-out: Binding affinity, Ki (nM) hNK-2-CHO
# T2 construct: expressed in transfected cells; host or cells: CHO
# T2 sequence (P21452 1-398): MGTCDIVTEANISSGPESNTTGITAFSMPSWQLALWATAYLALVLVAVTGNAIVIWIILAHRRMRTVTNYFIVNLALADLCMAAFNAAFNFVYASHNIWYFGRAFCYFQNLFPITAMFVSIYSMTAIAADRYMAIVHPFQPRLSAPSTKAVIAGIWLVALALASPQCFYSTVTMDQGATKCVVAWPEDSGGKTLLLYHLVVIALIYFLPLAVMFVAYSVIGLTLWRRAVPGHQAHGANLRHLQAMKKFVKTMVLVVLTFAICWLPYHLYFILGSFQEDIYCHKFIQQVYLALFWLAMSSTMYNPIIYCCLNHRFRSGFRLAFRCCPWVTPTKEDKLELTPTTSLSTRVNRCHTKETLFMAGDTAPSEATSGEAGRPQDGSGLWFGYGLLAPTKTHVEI
# Experimental: The activity of the compounds of the present invention, as NK-2 ligands, is determined by their ability to inhibit the binding of the radiolabelled NK-2 ligands, [^125I]-NKA or [^3H]-NKA, to human NK-2 receptors (Aharony et al, 1992, Neuropeptide, 23, 121-130).
# The binding assays utilized allow the determination of the concentration of the individual compound required to reduce by 50% the [^125I]-NKA and [^3H]-NKA specific binding to NK2 receptor in equilibrium conditions (IC50).
# Binding assays provide for each compound tested a mean IC50 value of 2-5 separate experiments performed in duplicate or triplicate. […] The NK-2-antagonist activity of the compounds of the present invention is determined by their ability to inhibit human NK-2 receptor-mediated Ca^++ mobilization (Mochizuki et al, 1994, J. Biol. Chem., 269, 9651-9658). Human receptor functional assay allows the determination of the concentration of the individual compound required to reduce by 50% (IC50 values) the Ca^++ mobilization induced by the agonist NKA. In this assay, the compounds of the present invention behave as antagonists.
SMILES,Ki [1] [nM],Ki [2] [nM],melting point [°C]
"CC[C@H](NC(=O)c1c(CN2CCC(=O)CC2)c(-c2ccccc2)nc2ccccc12)c1ccccc1 [Example 17, (S)-N-(α-Ethylbenzyl)-3-[(4-oxopiperidin-1-yl)methyl]-2-phenylquinoline-4-carboxamide]",1.5,42.7,> 95
"CC[C@H](NC(=O)c1c(CN2CCC(=O)C2)c(-c2ccccc2)nc2ccccc12)c1ccccc1 [Example 34, (S)-N-(α-ethylbenzyl)-3-[(3-oxo)pyrrolidin-1-ylmethyl]-2-phenylquinoline-4-carboxamide]",1.5,38,142 to 145
CC(C)[C@H](NC(=O)c1c(CN(C)C)c(-c2ccccc2)nc2ccccc12)c1ccccc1 [Example 41],3.3,56.7,117 to 120

# The next compounds have a lower Ki [1] than those just listed; values first:
Ki [1] [nM],Ki [2] [nM],melting point [°C],SMILES
1,1.2,125 to 130,CC(C)[C@H](NC(=O)c1c(CN2CCN(C(C)C)CC2)c(-c2ccccc2)nc2ccccc12)c1ccccc1 [Example 43]
0.8,0.9,158 to 160,CC[C@H](NC(=O)c1c(CN2CCN(CCc3ccccc3)CC2)c(-c2ccccc2)nc2ccccc12)c1ccccc1 [Example 37]
